According to US10172875B2, “Therapeutic combinations comprising anti-FOLR1 immunoconjugates” (ImmunoGen, Inc., priority 2015, dated 2019):
Like-named read-outs stand apart in the source and are kept apart here.

Columns and labels:
[1] = tested on: ST088 human epithelial ovarian cancer patient derived tumor xenografts; test: Antitumor activity of IMGN853, PLD and combination in ST088 tumor model (Example 1); assay type: in vivo, SCID mice
Protocol: Tumor volumes were measured twice weekly in three dimensions using a caliper. […] FIG. 1 depicts the results.

[2] = tested on: OV90 serous ovarian tumor xenografts; test: Antitumor activity of IMGN853 (2.5 mg/kg), bevacizumab and combination in OV90 tumor model (Example 3); assay type: in vivo, SCID mice; conditions: IMGN853 2.5 mg/kg 1× and/or bevacizumab 5 mg/kg 1×
Text: FIG. 2B depicts the results.

[3] = tested on: platinum-resistant ovarian cancer PDXs; test: IMGN853 with bevacizumab in platinum-resistant ovarian cancer PDX, 102-day study (FIG. 11B); assay type: in vivo, mice; conditions: IMGN853 5 mg/kg QWx2, bevacizumab 5 mg/kg QWx2, alone or combined
Text: Tumor growth was monitored out to 102 days. * P=0.011; ** P=0.018; ns, not significant (Wilcoxon test, non-adjusted).

[4] = tested on: IGROV-1 ovarian tumor xenografts; test: Antitumor activity of IMGN853, bevacizumab and combination in IGROV-1 tumor model (Example 5); assay type: in vivo, SCID mice; conditions: IMGN853 5 mg/kg 1× and/or bevacizumab 5 mg/kg 1×
Text: All treatments consisted of single doses (1×).
FIG. 4 depicts the results.

[5] = tested on: OV90 serous ovarian tumor xenografts; test: Antitumor activity of IMGN853, cediranib and combination in OV90 tumor model (Example 9); assay type: in vivo, SCID mice; conditions: IMGN853 2.5 mg/kg 1× and/or cediranib 1.5 mg/kg qd×5
Text: The term “respond favorably” generally refers to causing a beneficial state in a subject. With respect to cancer treatment, the term refers to providing a therapeutic effect on the subject. Positive therapeutic effects in cancer can be measured in a number of ways (See, W. A. Weber, J. Nucl. Med. 50:1S-10S (2009)). For example, tumor growth inhibition, molecular marker expression, serum marker expression, and molecular imaging techniques can all be used to assess therapeutic efficacy of an anti-cancer therapeutic. Log10 Cell Kill (LCK) can be used to quantify the tumor cell kill. Log10 cell kill (LCK) is calculated with the formula LCK=(T−C)/Td×3.32, where (T−C) (or tumor growth delay (TGD)) is the median time (in days) for the treatment group and control group tumors to reach a predetermined size (tumor-free survivors excluded). Td is the tumor doubling time (estimated from nonlinear exponential curve fit of daily median of control tumor growth), and 3.32 is the number of cell doublings per log of cell growth. The ability to reduce tumor volume may be assessed, for example, by measuring a % T/C value, which is the median tumor volume of treated subjects divided by the median tumor volume of the control subjects. With respect to tumor growth inhibition, according to NCI standards, a T/C≤42% is the minimum level of anti-tumor activity. A T/C<10% is considered a high anti-tumor activity level, with T/C (%)=Median tumor volume of the treated/Median tumor volume of the control×100. A favorable response can be assessed, for example, by increased progression-free survival (PFS), disease-free survival (DFS), or overall survival (OS), complete response (CR), partial response (PR), or, in some cases, stable disease (SD), a decrease in progressive disease (PD), a […] time to progression (TTP), a decrease in CA125 in the case of ovarian cancer, or any combination thereof.

IGROV-1 cells = test: Cell cycle analysis, IMGN853 and carboplatin (FIG. 9B); assay type: cell-based; conditions: carboplatin 20 μM, IMGN853 8 nM, alone or combined, 6 hours, then 24 hour drug-free medium
Protocol: Cells were washed, and cell cycle distribution determined following 24 hour culture in drug-free medium.

[6] = tested on: platinum-resistant ovarian cancer PDXs; test: IMGN853 and PLD in platinum-resistant EOC PDX model (FIG. 10C, 10D); assay type: in vivo, SCID mice; conditions: QWx2: IMGN853 5 mg/kg or PLD 4 mg/kg; day 49
Protocol: Data are expressed as mean and SEM for each time point.
Mean values are plotted against vehicle controls.
To extend the in vitro observations, the combination of IMGN853 and PLD was examined in a platinum-resistant EOC PDX model (FIG. 10C). Vehicle-treated animals progressed quickly and were removed from study when tumors reached volumes between 1500-2000 mm^3. QWx2 dosing of IMGN853 (5 mg/kg) inhibited tumor growth by 81% on day 49, and a similar degree of inhibition (83%) was seen when PLD (4 mg/kg) was administered on the same schedule.

OV-90 xenografts = test: OV-90 tumors harvested 4 days post-dosing: histology, γH2AX, CD31, anti-maytansine (FIGS. 12A-12C); assay type: in vivo, mice; conditions: IMGN853 2.5 mg/kg and/or bevacizumab 5 mg/kg
Protocol: Original magnification, 4×; scale bars, 2 mm (for Combination panel, 600 μm).
For each group, representative micrographs from one of three tumors are shown. Original magnification, 20×; scale bars, 200 μm.
Next, as a pharmacodynamic readout, tumor γH2AX levels were measured by immunoblotting (FIG. 12B).
While genotoxic insults are the primary inducers of γH2AX, accumulation of this protein can also occur in response to hypoxia. […] In order to examine treatment-related effects on microvessels, immunohistochemical staining with the endothelial cell marker CD31 was performed (FIG. 12C, upper panel).

[7] = tested on: OV90 serous ovarian tumor xenografts; conditions: IMGN853 5 mg/kg 1× and/or bevacizumab 5 mg/kg 1×
Protocol: Mice were randomized into groups (n=6 per group) by tumor volume and subsequently dosed on Day 14 post-inoculation.
Tumor volumes were measured one to two times weekly in three dimensions using a caliper. The tumor volume was expressed in mm^3 using the formula V=Length×Width×Height×½ (Tomayko and Reynolds, Cancer Chemother. Pharmacol. 24:148-54 (1989)) Body weights were measured twice per week as an index of toxicity. Activity was assessed as described in Bissery et al. (1991).

[8] = tested on: H2110 non-small cell lung cancer (NSCLC) tumor xenografts; conditions: for CR / PR: responders/animals
Protocol: Mice were randomized into groups (n=6-10 per group) by tumor volume and subsequently dosed on Day 7 post-inoculation. All treatments consisted of single doses (1×).
Tumor volumes were measured one to two times weekly in three dimensions using a caliper. The tumor volume was expressed in mm^3 using the formula V=Length×Width×Height×½ (Tomayko 1989). Body weights were measured twice per week as an index of test agent toxicity. Activity was assessed as described in Bissery et al. (1991).

[9] = IMGN853 5 mg/kg QWx2 and/or PLD 4 mg/kg QWx2
[10] = IMGN853 5 mg/kg QWx2 and/or PLD 4 mg/kg QWx2, responders/animals
[11] = IMGN853 1.5 mg/kg 1×, alone or with bevacizumab 5 mg/kg 1×
[12] = IMGN853 3 mg/kg 1× and/or bevacizumab 5 mg/kg 1×

IMGN853
tolerability / body weight ([1]; IMGN853 5 mg/kg QWx2): well tolerated with no notable body weight loss observed | T/C [1, 9]: 31% | antitumor activity rating [1, 9]: active | complete responses (CR) [1, 10]: 0/8 | partial responses (PR) [1, 10]: 0/8 | T/C [2]: 36% | TFS [2]: 0/6 | antitumor activity rating [2]: active | CR ([2]; responders/animals): 0/6 | antitumor effect [3]: moderate activity | T/C [4]: 20% | TFS [4]: 0/4 | antitumor activity rating [4]: active | CR ([4]; responders/animals): 0/4 | T/C [5]: 31% | antitumor activity rating [5]: active | LCK ([5]; Log10 cell kill): 0.5 | PR ([5]; responders/animals): 0/6 | T−C ([5]; tumor growth delay): 13 days | cell cycle distribution (IGROV-1 cells): enrichment of cells in G2/M | tumor growth inhibition [6]: 81% | tumor γH2AX levels by immunoblotting (OV-90 xenografts; 4 days post-dosing): robustly induced | tumor microvessels, CD31 immunohistochemical staining (OV-90 xenografts; day 4): numerous large vessels | T/C [7]: 36% | antitumor activity rating [7]: active | tumor free survivors (TFS) [7]: 0/5 | CR ([7]; responders/animals): 1/5 | T/C [8, 11]: 64% | TFS [8, 11]: 0/6 | antitumor activity rating [8, 11]: inactive | CR [8, 11]: 0/6 | PR [8, 11]: 1/6 | body weight loss ([8]; IMGN853 1.5 mg/kg monotherapy, Day 25 post-inoculation): 8% | T/C [8, 12]: 25% | TFS [8, 12]: 0/6 | antitumor activity rating [8, 12]: active | CR [8, 12]: 0/6 | PR [8, 12]: 2/6 | body weight loss ([8]; IMGN853 3 mg/kg monotherapy, Day 42 post-inoculation): 9%
